Laboratory results taken from patent publication US7935815B2, “Imidazoyl pyridine compounds and salts thereof” (Eisai R&D Management Co., Ltd., priority 2007, dated 2011).

System: Aβ42 production
Assay: Quantification of Aβ peptide in culture of neurons from rat fetus brain (Aβ ELISA)
Type: cell-based
Conditions: Rattus norvegicus, Neuron, 72 h, rat primary neuronal culture (embryonic day 18 Wistar rat cerebral cortex); cultured three days after addition of compound; Aβx-42 ELISA of the medium; read-out: Aβ42 production reducing effect IC50
Procedure, shortened: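 Primary cortical neurons from E18 Wistar rat embryos were cultured 4 days on poly-lysine, then treated with compound in Neurobasal/B27 without 2-mercaptoethanol (final DMSO ≤1%) for 3 days. Conditioned medium was assayed undiluted by ELISA for Aβx-42, against DMSO-only controls.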

Question: Which IC50 does the source give for `COc1nc(/C=C/c2nc3n(n2)CCCC3c2ccccc2OC(F)(F)F)ccc1-n1cnc(C)c1` (single isomer, unassigned; (-)) [Example 283, (−)-8-(2-trifluoromethoxyphenyl)-2-{(E)-2-[6-methoxy-5-(4-methyl-1H-imidazol-1-yl)pyridin-2-yl]vinyl}-5,6,7,8-tetrahydro-[1,2,4]triazolo[1,5-a]pyridine] here?
Answer: Its IC50 is 0.027 µM.

Question: Which IC50 does the source give for `COc1nc(/C=C/c2nc3n(n2)CCCC3c2ccc(F)cc2C(F)(F)F)ccc1-n1cnc(C)c1` (single isomer, unassigned; (-)) [Example 286, (−)-8-(2-trifluoromethyl-4-fluorophenyl)-2-{(E)-2-[6-methoxy-5-(4-methyl-1H-imidazol-1-yl)pyridin-2-yl]vinyl}-5,6,7,8-tetrahydro-[1,2,4]triazolo[1,5-a]pyridine] here?
Answer: Its IC50 is 0.008 µM.

Question: With `COc1nc(/C=C/c2nc3n(n2)CCCC3c2ccccc2Br)ccc1-n1cnc(C)c1` (single isomer, unassigned; (-)) [Example 290, (−)-8-(2-bromophenyl)-2-{(E)-2-[6-methoxy-5-(4-methyl-1H-imidazol-1-yl)pyridin-2-yl]vinyl}-5,6,7,8-tetrahydro-[1,2,4]triazolo[1,5-a]pyridine] as the compound, how does the IC50 read?
Answer: The IC50 was 0.016 µM.

Question: How did the IC50 turn out when `COc1cc(/C=C/c2nc3n(n2)CCCC3c2ccccc2C(F)(F)F)ccc1-n1cnc(C)c1` (single isomer, unassigned; (-)) [Example 311, (−)-2-{(E)-2-[3-methoxy-4-(4-methyl-1H-imidazol-1-yl)phenyl]vinyl}-8-(2-trifluoromethylphenyl)-5,6,7,8-tetrahydro-[1,2,4]triazolo[1,5-a]pyridine] was run?
Answer: Its IC50 is 0.011 µM.

Question: `COc1cc(/C=C/c2nc3n(n2)CCC3c2ccccc2C(F)(F)F)ccc1-n1cnc(C)c1` (single isomer, unassigned; (-)) [Example 317, (−)-2-{(E)-2-[3-methoxy-4-(4-methyl-1H-imidazol-1-yl)phenyl]vinyl}-7-(2-trifluoromethylphenyl)-6,7-dihydro-5H-pyrrolo[1,2-b][1,2,4]triazole] was tested. Which IC50 did it give?
Answer: Its IC50 is 0.025 µM.

Question: How did the IC50 turn out when `COc1nc(/C=C/c2nc3n(n2)CCCC3c2ccccc2C)ccc1-n1cnc(C)c1` (single isomer, unassigned; (-)) [Example 319, (−)-2-{(E)-2-[6-methoxy-5-(4-methyl-1H-imidazol-1-yl)pyridin-2-yl]vinyl}-8-(o-tolyl)-5,6,7,8-tetrahydro[1,2,4]triazolo[1,5-a]pyridine] was run?
Answer: The IC50 was 0.015 µM.

Question: `COc1nc(/C=C/c2nc3n(n2)CCCC3c2cccc(C(F)(F)F)c2)ccc1-n1cnc(C)c1` (single isomer, unassigned; (-)) [Example 321, (−)-2-{(E)-2-[6-methoxy-5-(4-methyl-1H-imidazol-1-yl)pyridin-2-yl]vinyl}-8-(3-trifluoromethylphenyl)-5,6,7,8-tetrahydro[1,2,4]triazolo[1,5-a]pyridine] was tested. Which IC50 did it give?
Answer: The IC50 was 0.023 µM.

Question: `COc1nc(/C=C/c2nc3n(n2)CCCC3c2ccccc2F)ccc1-n1cnc(C)c1` (single isomer, unassigned; (-)) [Example 327, (−)-8-(2-fluorophenyl)-2-{(E)-2-[6-methoxy-5-(4-methyl-1H-imidazol-1-yl)pyridin-2-yl]vinyl}-5,6,7,8-tetrahydro-[1,2,4]triazolo[1,5-a]pyridine] was tested. Which IC50 did it give?
Answer: Its IC50 is 0.02 µM.

Question: `COc1nc(/C=C/c2nc3n(n2)CCCC3c2cc(F)ccc2C(F)(F)F)ccc1-n1cnc(C)c1` (single isomer, unassigned; (-)) [Example 329, (−)-8-(5-fluoro-2-trifluoromethylphenyl)-2-{(E)-2-[6-methoxy-5-(4-methyl-1H-imidazol-1-yl)pyridin-2-yl]vinyl}-5,6,7,8-tetrahydro-[1,2,4]triazolo[1,5-a]pyridine] was tested. Which IC50 did it give?
Answer: The IC50 was 0.017 µM.

Question: How did the IC50 turn out when `COc1nc(/C=C/c2nc3n(n2)CCCC3c2c(F)cccc2C(F)(F)F)ccc1-n1cnc(C)c1` (single isomer, unassigned; (-)) [Example 331, (−)-8-(6-fluoro-2-trifluoromethylphenyl)-2-{(E)-2-[6-methoxy-5-(4-methyl-1H-imidazol-1-yl)pyridin-2-yl]vinyl}-5,6,7,8-tetrahydro-[1,2,4]triazolo[1,5-a]pyridine] was run?
Answer: The IC50 was 0.022 µM.

Question: `COc1nc(/C=C/c2nc3n(n2)CCCC3c2cccc(F)c2C)ccc1-n1cnc(C)c1` (single isomer, unassigned; (-)) [Example 333, (−)-8-(3-fluoro-2-methylphenyl)-2-{(E)-2-[6-methoxy-5-(4-methyl-1H-imidazol-1-yl)pyridin-2-yl]vinyl}-5,6,7,8-tetrahydro-[1,2,4]triazolo[1,5-a]pyridine] was tested. Which IC50 did it give?
Answer: The IC50 was 0.01 µM.

Question: How did the IC50 turn out when `COc1nc(/C=C/c2nc3n(n2)CCCC3c2cc(F)cc(F)c2)ccc1-n1cnc(C)c1` (single isomer, unassigned; (-)) [Example 337, (−)-8-(3,5-difluorophenyl)-2-{(E)-2-[6-methoxy-5-(4-methyl-1H-imidazol-1-yl)pyridin-2-yl]vinyl}-5,6,7,8-tetrahydro[1,2,4]triazolo[1,5-a]pyridine] was run?
Answer: The IC50 was 0.013 µM.

Question: For `Cc1cn(-c2ccc(/C=C/c3nc4n(n3)CCCC4c3ccccc3C(F)(F)F)nc2OCC(F)F)cn1` (single isomer, unassigned; (-)) [Example 354, (−)-2-{(E)-2-[5-(4-methyl-1H-imidazol-1-yl)-6-(2,2-difluoroethoxy)pyridin-2-yl]vinyl}-8-(2-trifluoromethylphenyl)-5,6,7,8-tetrahydro-[1,2,4]triazolo[1,5-a]pyridine], which IC50 is on record?
Answer: The IC50 was 0.037 µM.

Question: For `COc1cc(/C=C/c2nc3n(n2)CCC/C3=C\c2ccccc2)ccc1-n1cnc(C)c1` [Example 12, 2-{(E)-2-[3-methoxy-4-(4-methyl-1H-imidazol-1-yl)phenyl]vinyl}-8-[1-phenylmethy-(E)-lidene]-5,6,7,8-tetrahydro[1,2,4]triazolo[1,5-a]pyridine], which IC50 is on record?
Answer: Its IC50 is 0.135 µM.

Question: For `COc1cc(/C=C/c2nc3n(n2)C[C@H](C)C[C@@H]3c2ccc(F)cc2)ccc1-n1cnc(C)c1` [Example 97, (6R,8R)-8-(4-fluorophenyl)-2-{(E)-2-[3-methoxy-4-(4-methyl-1H-imidazol-1-yl)phenyl]vinyl}-6-methyl-5,6,7,8-tetrahydro-[1,2,4]triazolo[1,5-a]pyridine], which IC50 is on record?
Answer: The IC50 was 0.038 µM.

Question: Which IC50 does the source give for `COc1cc(/C=C/c2nc3n(n2)C[C@@H](C)C[C@@H]3c2ccc(F)cc2)ccc1-n1cnc(C)c1` [Example 99, (6S,8R)-8-(4-fluorophenyl)-2-{(E)-2-[3-methoxy-4-(4-methyl-1H-imidazol-1-yl)phenyl]vinyl}-6-methyl-5,6,7,8-tetrahydro-[1,2,4]triazolo[1,5-a]pyridine] here?
Answer: The IC50 was 0.02 µM.

Question: How did the IC50 turn out when `COc1cc(/C=C/c2nc3n(n2)CC[C@@H](C)[C@@H]3c2ccc(F)cc2)ccc1-n1cnc(C)c1` [Example 102, (7R,8R)-8-(4-fluorophenyl)-2-{(E)-2-[3-methoxy-4-(4-methyl-1H-imidazol-1-yl)phenyl]vinyl}-7-methyl-5,6,7,8-tetrahydro-[1,2,4]triazolo[1,5-a]pyridine] was run?
Answer: The IC50 was 0.02 µM.

Question: For `COc1cc(/C=C/c2nc3n(n2)CC[C@H](O)[C@H]3c2cc(F)c(F)c(F)c2)ccc1-n1cnc(C)c1` [Example 103, (7S,8S)-2-{(E)-2-[3-methoxy-4-(4-methyl-1H-imidazol-1-yl)phenyl]vinyl}-8-(3,4,5-trifluorophenyl)-5,6,7,8-tetrahydro-[1,2,4]triazolo[1,5-a]pyridin-7-ol], which IC50 is on record?
Answer: Its IC50 is 0.032 µM.
